Test results published in article PMC8883573, “New Insights Into the Function of Flavohemoglobin in Mycobacterium tuberculosis: Role as a NADPH-Dependent Disulfide Reductase and D-Lactate-Dependent Mycothione Reductase” (Frontiers in Cellular and Infection Microbiology, 2022).

Target: T1, MtbFHb (Mycobacterium tuberculosis, UniProt Q7ARS9)
T1 construct: gene Rv0385
T1 sequence (Q7ARS9 entry or part of it): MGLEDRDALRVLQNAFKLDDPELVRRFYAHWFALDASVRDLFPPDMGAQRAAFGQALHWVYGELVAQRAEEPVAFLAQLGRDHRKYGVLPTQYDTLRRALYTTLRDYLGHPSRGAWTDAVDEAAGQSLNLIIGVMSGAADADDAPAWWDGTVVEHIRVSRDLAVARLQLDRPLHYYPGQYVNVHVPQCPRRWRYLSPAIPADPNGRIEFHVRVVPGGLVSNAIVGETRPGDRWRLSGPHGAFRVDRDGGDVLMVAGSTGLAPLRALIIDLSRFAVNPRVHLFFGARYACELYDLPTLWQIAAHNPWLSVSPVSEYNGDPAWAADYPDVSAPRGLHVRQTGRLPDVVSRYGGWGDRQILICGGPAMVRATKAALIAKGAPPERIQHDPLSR

C[C@@H](O)C(=O)O [D-lactate]
far-UV circular dichroism (conformational change): These results confirmed a conformational change in MtbFHb during its interaction with D-lactate
